Data: PubChem BioAssay AID1259407 (Chemical Carcinogenesis Research Information System (CCRIS), 2018)
The source made the active and inactive calls. How the calls were made is not given here.

Test system: CCRIS mutagenicity, Ames/micronucleus/aberration tests
Assay: CCRIS mutagenicity studies
[1] = Test System: AMES SALMONELLA TYPHIMURIUM, Strain/Indicator: TA98, Metabolic Activation: NONE, Method: PREINCUBATION
[2] = Test System: AMES SALMONELLA TYPHIMURIUM, Strain/Indicator: TA100, Metabolic Activation: NONE, Method: PREINCUBATION
[3] = Test System: AMES SALMONELLA TYPHIMURIUM, Strain/Indicator: TA1535, Metabolic Activation: NONE, Method: PREINCUBATION
[4] = Test System: AMES SALMONELLA TYPHIMURIUM, Strain/Indicator: TA1537, Metabolic Activation: NONE, Method: PREINCUBATION
[5] = Test System: AMES SALMONELLA TYPHIMURIUM, Strain/Indicator: TA1538, Metabolic Activation: NONE, Method: PREINCUBATION

O=c1n(Cl)c(=O)n(Cl)c(=O)n1Cl
mutagenic call [1]: inactive; negative
mutagenic call (Test System: AMES SALMONELLA TYPHIMURIUM, Strain/Indicator: TA98, Metabolic Activation: RAT LIVER S-9, PHENOBARBITAL AND BETA-NAPHTHOFLAVONE, Method: PREINCUBATION): inactive; negative
mutagenic call (Test System: AMES SALMONELLA TYPHIMURIUM, Strain/Indicator: TA98, Metabolic Activation: RAT, LIVER, S-9, KC 500, Method: PREINCUBATION): inactive; negative
mutagenic call [2]: inactive; negative
mutagenic call (Test System: AMES SALMONELLA TYPHIMURIUM, Strain/Indicator: TA100, Metabolic Activation: RAT LIVER S-9, PHENOBARBITAL AND BETA-NAPHTHOFLAVONE, Method: PREINCUBATION): inactive; negative
mutagenic call (Test System: AMES SALMONELLA TYPHIMURIUM, Strain/Indicator: TA100, Metabolic Activation: RAT, LIVER, S-9, KC 500, Method: PREINCUBATION): inactive; negative
mutagenic call [3]: inactive; negative
mutagenic call (Test System: AMES SALMONELLA TYPHIMURIUM, Strain/Indicator: TA1535, Metabolic Activation: RAT LIVER S-9, PHENOBARBITAL AND BETA-NAPHTHOFLAVONE, Method: PREINCUBATION): inactive; negative
mutagenic call (Test System: AMES SALMONELLA TYPHIMURIUM, Strain/Indicator: TA1535, Metabolic Activation: RAT, LIVER, S-9, KC 500, Method: PREINCUBATION): inactive; negative
mutagenic call [4]: inactive; negative
mutagenic call (Test System: AMES SALMONELLA TYPHIMURIUM, Strain/Indicator: TA1537, Metabolic Activation: RAT LIVER S-9, PHENOBARBITAL AND BETA-NAPHTHOFLAVONE, Method: PREINCUBATION): inactive; negative
mutagenic call (Test System: AMES SALMONELLA TYPHIMURIUM, Strain/Indicator: TA1537, Metabolic Activation: RAT, LIVER, S-9, KC 500, Method: PREINCUBATION): inactive; negative
mutagenic call [5]: inactive; negative
mutagenic call (Test System: AMES SALMONELLA TYPHIMURIUM, Strain/Indicator: TA1538, Metabolic Activation: RAT LIVER S-9, PHENOBARBITAL AND BETA-NAPHTHOFLAVONE, Method: PREINCUBATION): inactive; negative
mutagenic call (Test System: AMES SALMONELLA TYPHIMURIUM, Strain/Indicator: TA1538, Metabolic Activation: RAT, LIVER, S-9, KC 500, Method: PREINCUBATION): inactive; negative
mutagenic call (Test System: E. COLI, Strain/Indicator: WP2 UVRA, Metabolic Activation: NONE, Method: PREINCUBATION): inactive; negative
mutagenic call (Test System: E. COLI, Strain/Indicator: WP2UVRA, Metabolic Activation: NONE, Method: PREINCUBATION): inactive; negative
mutagenic call (Test System: E. COLI, Strain/Indicator: WP2UVRA, Metabolic Activation: RAT LIVER S-9, PHENOBARBITAL AND BETA-NAPHTHOFLAVONE, Method: PREINCUBATION): inactive; negative
mutagenic call (Test System: E. COLI, Strain/Indicator: WP2 UVRA, Metabolic Activation: RAT, LIVER, S-9, KC 500, Method: PREINCUBATION): inactive; negative

O=C(O)C(F)(F)C(F)(F)C(F)(F)C(F)(F)C(F)(F)C(F)(F)C(F)(F)C(F)(F)C(F)(F)F
mutagenic call [1]: inactive; negative
mutagenic call (Test System: AMES SALMONELLA TYPHIMURIUM, Strain/Indicator: TA98, Metabolic Activation: RAT, LIVER, S-9, Method: PREINCUBATION): inactive; negative
mutagenic call [2]: inactive; negative
mutagenic call (Test System: AMES SALMONELLA TYPHIMURIUM, Strain/Indicator: TA100, Metabolic Activation: RAT, LIVER, S-9, Method: PREINCUBATION): inactive; negative
mutagenic call [3]: inactive; negative
mutagenic call (Test System: AMES SALMONELLA TYPHIMURIUM, Strain/Indicator: TA1535, Metabolic Activation: RAT, LIVER, S-9, Method: PREINCUBATION): inactive; negative
mutagenic call [4]: inactive; negative
mutagenic call (Test System: AMES SALMONELLA TYPHIMURIUM, Strain/Indicator: TA1537, Metabolic Activation: RAT, LIVER, S-9, Method: PREINCUBATION): inactive; negative
mutagenic call [5]: inactive; negative
mutagenic call (Test System: AMES SALMONELLA TYPHIMURIUM, Strain/Indicator: TA1538, Metabolic Activation: RAT, LIVER, S=9, Method: PREINCUBATION): inactive; negative
mutagenic call (Test System: CHINESE HAMSTER OVARY, Strain/Indicator: CHO-K1-BH4 (HGPRT), Metabolic Activation: NONE, Method: STANDARD PLATE): inactive; negative
mutagenic call (Test System: CHINESE HAMSTER OVARY, Strain/Indicator: CHO-K1-BH4 (HGPRT), Metabolic Activation: RAT, LIVER, S-9, Method: STANDARD PLATE): inactive; negative
mutagenic call (Test System: UDS RODENT HEPATOCYTES, Strain/Indicator: THY INCORP (NON-S-PHASE), Metabolic Activation: NONE, Method: AUTORADIOGRAPHY): inactive; negative

C/C=C(\C)C=O
mutagenic call (Test System: MOUSE LYMPHOMA, Strain/Indicator: L5178Y (TK+/TK-), Metabolic Activation: NONE, Method: SUSPENSION/PLATE): active; positive. reevaluation of results: inconclusive
mutagenic call (Test System: MOUSE LYMPHOMA, Strain/Indicator: L5178Y (TK+/TK-), Metabolic Activation: RAT, LIVER, S-9, AROCLOR 1254, Method: SUSPENSION/PLATE): inactive; negative. reevaluation of results: negative

CCN(CC)c1cc(NC(C)=O)c(N=Nc2c(Cl)cc([N+](=O)[O-])cc2[N+](=O)[O-])cc1OC
mutagenic call (End Point: IN VITRO CHROMOSOMAL ABERRATIONS, Test System: CHL CELLS, Metabolic Activation: RAT, LIVER, S-9, SODIUM PHENOBARBITAL AND 5,6-BENZOFLAVONE): inactive; negative

CCN(CC)CC(O)CNc1c2ccc([N+](=O)[O-])cc2nc2cc(OC)c(OC)cc12 (stereo not given)
mutagenic call (Test System: Escherichia coli, Strain/Indicator: CC107 (G6 to B7 frameshifts), Metabolic Activation: None, Method: Modified preincubation): active; positive
mutagenic call (Test System: Escherichia coli, Strain/Indicator: CC108 (G6 to G5 frameshifts), Metabolic Activation: None, Method: Modified preincubation): active; positive
mutagenic call (Test System: Escherichia coli, Strain/Indicator: CC109 (CG5 to CG4 frameshifts), Metabolic Activation: None, Method: Modified preincubation): active; positive
mutagenic call (Test System: Escherichia coli, Strain/Indicator: CC111 (A7 to A6 frameshifts), Metabolic Activation: None, Method: Modified preincubation): inactive; negative

ClC(Cl)(Cl)CC1CO1 (stereo not given)
mutagenic call (Test System: AMES SALMONELLA TYPHIMURIUM, Strain/Indicator: TA100, Metabolic Activation: HAMSTER, LIVER, S-9, AROCLOR 1254 (10%), Method: PREINCUBATION): inactive; negative
mutagenic call [2]: active; positive
mutagenic call (Test System: AMES SALMONELLA TYPHIMURIUM, Strain/Indicator: TA100, Metabolic Activation: RAT, LIVER, S-9, AROCLOR 1254 (10%), Method: PREINCUBATION): inactive; negative
mutagenic call (Test System: AMES SALMONELLA TYPHIMURIUM, Strain/Indicator: TA1535, Metabolic Activation: HAMSTER, LIVER, S-9, AROCLOR 1254 (10%), Method: PREINCUBATION): inactive; negative
mutagenic call [3]: inactive; negative
mutagenic call (Test System: AMES SALMONELLA TYPHIMURIUM, Strain/Indicator: TA1535, Metabolic Activation: RAT, LIVER, S-9, AROCLOR 1254 (10%), Method: PREINCUBATION): inactive; negative
